Legend:
[1] = single dose, non-Japanese adults; cited from earlier work
[2] = cited from earlier work
[3] = system: patients with SBS; assay: Time- and exposure-response analysis of prescribed PS; type: in vivo, human; conditions: for percent change from baseline of prescribed PS volume (maximum) / percent change from baseline of PS volume (maximum): 0.05 mg/kg
[4] = system: patients with SBS; conditions: cited from earlier work
[5] = Population PK analysis of teduglutide; type: in vivo, human
[6] = single and repeated doses up to 20 mg

In the case of CC[C@H](C)[C@H](NC(=O)[C@H](Cc1ccccc1)NC(=O)[C@H](CC(=O)O)NC(=O)[C@H](CCCNC(=N)N)NC(=O)[C@H](C)NC(=O)[C@H](C)NC(=O)[C@H](CC(C)C)NC(=O)[C@H](CC(N)=O)NC(=O)[C@H](CC(=O)O)NC(=O)[C@H](CC(C)C)NC(=O)[C@@H](NC(=O)[C@@H](NC(=O)[C@H](CC(N)=O)NC(=O)[C@H](CCSC)NC(=O)[C@H](CCC(=O)O)NC(=O)[C@H](CC(=O)O)NC(=O)[C@H](CO)NC(=O)[C@H](Cc1ccccc1)NC(=O)[C@H](CO)NC(=O)CNC(=O)[C@H](CC(=O)O)NC(=O)CNC(=O)[C@@H](N)Cc1c[nH]cn1)[C@@H](C)O)[C@@H](C)CC)C(=O)N[C@@H](CC(N)=O)C(=O)N[C@@H](Cc1c[nH]c2ccccc12)C(=O)N[C@@H](CC(C)C)C(=O)N[C@H](C(=O)N[C@@H](CCC(N)=O)C(=O)N[C@H](C(=O)N[C@@H](CCCCN)C(=O)N[C@H](C(=O)N[C@H](C(=O)N[C@@H](CC(=O)O)C(=O)O)[C@@H](C)O)[C@@H](C)CC)[C@@H](C)O)[C@@H](C)CC [teduglutide], the “AUCinf in individuals with ESRD vs healthy volunteers” value [1] is given as “more than twofold higher”, the “C max in individuals with ESRD vs healthy volunteers” value [1] is given as “more than twofold higher” and the terminal elimination half-life [2] is given as ~ 2 h. The “time of maximum plasma levels after dosing” value ([2]; s.c. injection) was 3 to 5 h, the accumulation [2, 6] was “no accumulation” and the “rate and extent of absorption vs dose” value [2, 6] was “dose‐proportional”. The “percent change from baseline of prescribed PS volume (maximum)” value ([3]; Japanese pediatric patients with SBS) was −29.7%, the “percent change from baseline of PS volume (maximum)” value ([3]; adult Japanese patients with SBS) was −62.6% and the “percent change from baseline of PS volume (maximum)” value ([3]; adult non-Japanese patients with SBS) was −54.9%. The “percent change from baseline of prescribed PS volume (maximum)” value ([3]; non-Japanese pediatric patients with SBS) was −74.7%, the “maximum reduction in PS” value ([3]; daily dosing of 0.05 mg/kg) was 5.76 L/week and the “E max of teduglutide on prescribed PS volume” value ([3]; final time- and exposure-response model, change from baseline in prescribed PS volume) was −5.76 L/week. For the same compound, the “incidence of adverse events leading to discontinuation of treatment” value ([4]; 0.05 mg/kg, adult patients with SBS, 24-week study) was “less than 5%”, the “responder rate (≥20% reduction from baseline in the volume of PS)” value ([4]; daily s.c. 0.05 mg/kg, patients with SBS, vs. 30% placebo, p = 0.002) was 63% and the “impact of race (Japanese vs. non-Japanese) on CL/F” value ([5]; covariate analysis) was “did not have an impact”. For the same compound, the “impact of race (Japanese vs. non-Japanese) on K a” value ([5]; covariate analysis) was “did not have an impact”, the “impact of race (Japanese vs. non-Japanese) on V/F” value ([5]; covariate analysis) was “did not have an impact” and the “CL/F in female subjects, lower relative to male subjects” value ([5]; final PopPK model) was 7%. The “V/F of typical subject of 0.38 years relative to typical subject of 34 years” value ([5]; final PopPK model) was “fourfold higher”, the absorption lag time ([5]; final PopPK model, corresponds to 0.299 h) was 17.9 min and the “time of peak concentrations after dosing” value ([5]; observed individual concentrations, adult and pediatric patients with SBS, s.c.) was 3 to 5 h. The “terminal elimination half-life (t 1/2), population estimate” value ([5]; patients with SBS, final PopPK model) was 1.47 h, the “mean C max,ss in Japanese adult patients, higher than in non-Japanese adult patients” value ([5]; s.c. 0.05 mg/kg, SBS) was 23% and the “mean C max,ss in Japanese pediatric patients, difference from non-Japanese pediatric patients” value ([5]; s.c. 0.05 mg/kg, SBS) was no more than 20%. For the same compound, the “time to total absorption after dosing” value ([5]; suggested by K a 0.330 h^−1 and lag time 17.9 min) was roughly 10 h.
